# Test results: patent US9409931B1, “3-O-acyl-ingenol analogues” (LEO LABORATORIES LIMITED, priority 2015, dated 2016)
# What was measured:
# [1] = test system: Primary human epidermal keratinocytes, HeKa; assay: HeKa cytokine release (IL-8); type: cell-based; conditions: normalized to positive control 1.5×10^−7 M PEP0005, 6 h incubation, read-out: HeKa cytokine release (IL-8) Rel EC50
# Method: Primary human epidermal keratinocytes, HeKa, were seeded (10.000 cells/well) in 96-well plates the day before the assay. Test compounds were diluted in DMSO (dimethyl sulfoxide) and further diluted in assay medium and pipetted into wells of 96 well-plates containing HeKa cells. The plates were incubated for 6 h at 37° C. in humidified air with 5% CO2. Plates were centrifuged briefly to spin down cells at 4° C., the supernatant was removed and analysed by Meso Scale Discovery (MSD) 4-spot cytokine assay (Pro-inflammatory II Ultra Sensitive kit, MSD, MD, USA). The MSD assay employs a sandwich immunoassay format where capture antibodies are coated in a patterned array on the bottom of the wells of a 4-Spot-Multi-MSD plate. Standard samples were incubated in the MULTI-SPOT plates as well, and the cytokine (IL-8) binds to its corresponding capture antibody spot. The cytokine level was quantitated on a SECTOR™ Imager using a cytokine-specific Detection Antibody labelled with MSD SULFO-TAG™ reagent.
# (§1) Test compound titration curves were fitted to a four-parameter sigmoidal curve after normalizing the effect of the test compound to the effect of the positive control (1.5×10^−7 M PEP0005). Rel EC50 (relative EC50) denotes the concentration of test compound producing an effect that is midway between the fitted top and bottom.
# [2] = target: Human Protein Kinase C betaII (PKCbII) (Homo sapiens (Human), UniProt P05771); assay: PKCbetaII activity assay; type: biochemical; conditions: γ-33P-ATP, normalized to the effect of DMSO, read-out: PKC-β binding Rel EC50
# Chain of Human Protein Kinase C betaII (PKCbII) (P05771 other isoform, or with tags, fused parts or gaps): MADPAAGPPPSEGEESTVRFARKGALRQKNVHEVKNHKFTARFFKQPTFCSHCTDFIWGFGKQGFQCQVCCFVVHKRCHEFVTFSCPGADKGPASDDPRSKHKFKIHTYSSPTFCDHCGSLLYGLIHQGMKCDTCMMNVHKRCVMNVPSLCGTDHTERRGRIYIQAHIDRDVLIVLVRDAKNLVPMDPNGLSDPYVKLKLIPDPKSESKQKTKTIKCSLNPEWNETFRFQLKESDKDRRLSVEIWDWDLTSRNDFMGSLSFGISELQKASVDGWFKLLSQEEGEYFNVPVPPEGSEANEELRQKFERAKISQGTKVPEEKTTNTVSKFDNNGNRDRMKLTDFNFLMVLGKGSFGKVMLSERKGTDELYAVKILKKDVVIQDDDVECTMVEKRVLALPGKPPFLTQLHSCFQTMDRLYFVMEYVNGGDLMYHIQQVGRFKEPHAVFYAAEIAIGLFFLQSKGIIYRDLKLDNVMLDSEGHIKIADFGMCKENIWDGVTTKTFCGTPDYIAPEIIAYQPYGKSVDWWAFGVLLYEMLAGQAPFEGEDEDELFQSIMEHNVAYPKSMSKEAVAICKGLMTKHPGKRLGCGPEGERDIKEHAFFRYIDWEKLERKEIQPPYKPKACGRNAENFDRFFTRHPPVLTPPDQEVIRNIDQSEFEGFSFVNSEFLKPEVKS
# Method: On the day at experiment Human Protein Kinase C betaII (PKCbII, Millipore cat#14-496) was incubated with 20 mM HEPES pH 7.4, 0.03% Triton X-100, 0.1 mM CaCl2, 0.1 mg/mL phosphatidylserine, 0.1 mg/mL histone H1, 10 mM MgAcetate. Amount of enzyme in each assay was 1.8 ng (final assay volume is 25 μL). The compounds were then diluted to 500 μM, and then serially diluted in 100% DMSO in semi-logarithmic decrements for 12 points. 0.5 μL of each concentration, in duplicate, was pipetted into a dry 96 well assay plate using a TIP Mosquito. Control and blank wells received 0.5 μL of 100% DMSO instead of compound. 14.5 μl kinase in assay buffer was added to each well. The assay was started with the addition of 10 μL ATP containing γ-33P-ATP] (specific activity approx. 500 cpm/pmol), to a final assay concentration of 70 μM. The reaction was allowed to proceed at room temperature for 40 minutes before the addition of 5 μL 3% ortho-phosphoric acid. Blank wells were acid blanks, and had 5 μL 3% ortho-phosphoric acid added before the addition of ATP. 10 μL of the stopped reaction products was transferred to a P30 filtermat which was then washed 4 times in 75 mM ortho-phosphoric acid, and once in methanol before drying. The filter was read by liquid scintillation counting using a Wallac Trilux. Rel EC50 (relative EC50) denotes the concentration of test compound that produces a response half-way between the fitted top and the fitted bottom of the curve when activities are normalized to the effect of DMSO.
# [3] = test system: PMN's (polymorphonuclear leukocytes); assay: Neutrophil oxidative burst; type: cell-based; conditions: Leukocyte, 40 min; normalized to positive control 5×10^−7 M PEP0005; 40 min incubation at RT; read-out: Neutrophil oxidative burst Rel EC50
# Method: PMN's (polymorphonuclear leukocytes) were isolated and purified from fresh buffy coats by sequential sedimentation, density centrifugation and lysis of contaminating erythrocytes. Buffy coats were incubated with 2% methocel for 30-45 min to differentially sediment red blood cells. The leukocyte-rich supernatant was transferred to lymphoprep tubes to remove mononuclear cells by density centrifugation (400×g, 30 min). The pellet was resuspended and any remaining erythrocytes lysed using 0.2% NaCl for 30 sec before restoring isotonicity by the addition of 1.2% NaCl. This step was repeated until the cell pellet appears relatively free of red blood cells. Cells were resuspended in DPBS (Dulbecco's Phosphate Buffered Saline) (w.o. Ca^2+, Mg^2+) and the concentration adjusted to 1.4×10^6 cells/ml in HBSS (Hanks Balanced Salt solution) (w Ca^2+, Mg^2+) containing 0.1% BSA (Bovine Serum Albumin) and 5 mM glucose just prior to assay initiation. Titrated reference and test compounds were pre-mixed with HE (Hydroethidine) (10 μM final assay concentration) before addition to 96-well plates containing 2.5×10^5 cells. Following 40 min incubation at RT, changes in the respiratory burst was estimated by measuring fluorescence at 579 nm (excitation: 485 nm) using an Envision plate reader.
# as §1, with “(5×10^−7” for “(1.5×10^−7”
# [4] = target: Human Protein Kinase C delta (PKCδ) (Homo sapiens (Human), UniProt Q05655); assay: PKC δ binding assay; type: biochemical; conditions: kinase activation, γ-33P-ATP, normalized to the effect of DMSO; read-out: PKC-δ binding Rel EC50
# Chain of Human Protein Kinase C delta (PKCδ) (Q05655 whole entry): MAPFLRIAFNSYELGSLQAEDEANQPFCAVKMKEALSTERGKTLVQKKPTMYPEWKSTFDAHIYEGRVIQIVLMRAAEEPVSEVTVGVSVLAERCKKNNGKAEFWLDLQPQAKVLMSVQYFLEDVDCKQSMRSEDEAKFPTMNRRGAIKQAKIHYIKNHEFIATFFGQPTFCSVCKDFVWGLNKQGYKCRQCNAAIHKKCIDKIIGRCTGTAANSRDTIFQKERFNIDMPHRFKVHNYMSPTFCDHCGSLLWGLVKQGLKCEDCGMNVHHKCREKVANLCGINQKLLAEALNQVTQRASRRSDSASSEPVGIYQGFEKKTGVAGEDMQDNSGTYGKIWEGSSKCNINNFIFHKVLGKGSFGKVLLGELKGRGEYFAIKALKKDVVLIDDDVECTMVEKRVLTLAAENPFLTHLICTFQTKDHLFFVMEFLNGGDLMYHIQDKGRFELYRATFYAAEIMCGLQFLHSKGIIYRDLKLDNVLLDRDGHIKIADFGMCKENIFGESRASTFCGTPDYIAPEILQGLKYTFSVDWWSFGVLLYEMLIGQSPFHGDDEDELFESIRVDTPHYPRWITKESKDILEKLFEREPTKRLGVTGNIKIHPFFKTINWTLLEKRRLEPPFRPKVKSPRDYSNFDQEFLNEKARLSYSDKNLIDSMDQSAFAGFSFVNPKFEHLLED
# Method: On the day at experiment Human Protein Kinase C delta (PKCδ, Millipore cat#14-504) was diluted in 20 mM HEPES, 0.03% Triton X-100. Amount of enzyme in each assay was 7.25 ng (final assay volume is 25 μL). All compounds for testing were diluted to 1 mM in 100% DMSO as an intermediary dilution. The compounds were then diluted further to 50 μM, and then serially diluted in 100% DMSO in semi-logarithmic decrements for 12 points. 0.5 μL of each concentration, in duplicate, was pipetted into a dry 96 well assay plate using a TTP Mosquito. Control and blank wells received 0.5 μL of 100% DMSO instead of compound. The assay was built with the addition of 14.5 μL of assay mixture, containing appropriately diluted enzyme and 20 mM HEPES pH 7.4, 0.03% Triton X-100, 0.05 mg/mL phosphatidylserine, and 50 μM ERMRPRKRQGSVRRRV. The assay was started with the addition of 10 μL ATP containing γ-33P-ATP] (specific activity approx. 500 cpm/pmol), to a final assay concentration of 15 μM. The reaction was allowed to proceed at room temperature for 40 minutes before the addition of 5 μL 3% ortho-phosphoric acid. Blank wells were acid blanks, and had 5 μL 3% ortho-phosphoric acid added before the addition of ATP. 10 μL of the stopped reaction products was transferred to a P30 filtermat which was then washed 4 times in 75 mM ortho-phosphoric acid, and once in methanol before drying. The filter was read by liquid scintillation counting using a Wallac Trilux. Rel EC50 (relative EC50) denotes the concentration of test compound that produces a response half-way between the fitted top and the fitted bottom of the curve when activities are normalized to the effect of DMSO.
Compound,EC50 [1] [nM],EC50 [2] [nM],EC50 [3] [nM],EC50 [4] [nM]
"CC1=C[C@@]23CC[C@@H]4[C@H]([C@H](C=C(CO)[C@@H](O)[C@]2(O)[C@H]1OC(=O)C1(C)CCCCC1)C3=O)C4(C)C [Compound 8, 11-desmethyl-ingenol 3-(1-methyl-cyclohexanecarboxylate)]",4,0.1,4,7
"CC1=C[C@]23C(=O)[C@@H](C=C(CO)[C@@H](O)[C@@H]2[C@H]1OC(=O)C1(C)CCCCC1)[C@H]1[C@@H](C[C@H]3C)C1(C)C [Compound 7, 4-deoxyingenol 3-(1-methyl-cyclohexanecarboxylate)]",35,0.2,9,154
"CC1=C[C@]23C(=O)[C@@H](C=C(CO)C[C@]2(O)[C@H]1OC(=O)C1(C)CCCCC1)[C@H]1[C@@H](C[C@H]3C)C1(C)C [Compound 6, 5-deoxyingenol 3-(1-methyl-cyclohexanecarboxylate)]",26,0.8,7,80
"CC1=C[C@]23C(=O)[C@@H](C=C(CO)C[C@@H]2[C@H]1OC(=O)C1(C)CCCCC1)[C@H]1[C@@H](C[C@H]3C)C1(C)C [Compound 5, 4,5-dideoxyingenol 3-(1-methyl-cyclohexanecarboxylate)]",130,6,13,1110
